Earlier results in patent publication US20100291025A1, “INDAZOLE INHIBITORS OF TYROSINE KINASE” (AUSPEX PHARMACEUTICALS, INC., priority 2009, published 2010).

Conditions: in vivo

Cc1ccc(Nc2nccc(N(C)c3ccc4c(C)n(C)nc4c3)n2)cc1S(N)(=O)=O [Pazopanib, 5-[[4-[(2,3-Dimethyl-2H-indazol-6-yl)(methyl)amino]pyrimidin-2-yl]amino]-2-methylbenzenesulfonamide]
adverse effects associated with administration: nausea, diarrhea, anorexia, hypertension, fatigue, hair depigmentation, and vomiting
